Test results reported in patent publication US9079866B2, “Flap modulators” (JANSSEN PHARMACEUTICA NV, priority 2013, dated 2015).
Structures can show the parent of a compound that is named as a salt. Where two headings read alike, the source gives them in different places.

System: leukotriene pathway in human whole blood (LTB4 levels)
Experiment: Human whole blood assay (A23187-stimulated LTB4)
Assay type: cell-based
Settings: Homo sapiens, read-out: LTB4 IC50 1:1
Description: The ability of the compounds of the present invention to treat a FLAP-mediated disease and/or disorder, or associated symptoms or complications thereof, was determined using the following procedures. Binding assay data represent the average value obtained from two different assay plates, with samples run in duplicate on each plate. Human whole blood assay data represent a single replicate on an assay plate using whole blood from at least one healthy donor.
An in vitro cellular assay was performed using human whole blood collected in heparin-containing tubes, which was used to test the ability of compounds to modulate the leukotriene pathway in human whole blood. The blood was diluted 1:1 in RPMI medium, pre-incubated for 15 min at 37° Celsius with test compounds at various concentrations, and then stimulated with calcium ionophore, A23187 (7 μg/mL), for 30 min at 37° Celsius. The samples were then centrifuged and plasma was removed. The plasma was diluted in assay buffer and LTB4 levels were measured using a commercial kit (Enzo Life Sciences). The concentration of each compound that was required for half-maximal inhibition (modulation) of recombinant enzyme activity (IC50) was calculated by a 4-parameter equation using the program GraphPad Prism (GraphPad software).

[1] = human whole blood diluted 1:1 in RPMI, A23187-stimulated LTB4
[2] = human whole blood diluted 1:1, A23187-stimulated

Compound | IC50 [1] [nM] | IC50 [2] [nM] | further results
CC(C)(CCO)NS(=O)(=O)c1ccccc1-c1ccc(-c2cnc(N)cn2)c(F)c1 [Example 102, 4′-(5-Aminopyrazin-2-yl)-3′-fluoro-N-(3-hydroxy-1,1-dimethylpropyl)biphenyl-2-sulfonamide] | 35 |  | 
CC(C)(CO)CNS(=O)(=O)c1ccccc1-c1ccc(-c2cnc(N)cn2)c(F)c1 [Example 103, 4′-(5-Aminopyrazin-2-yl)-3′-fluoro-N-(3-hydroxy-2,2-dimethylpropyl)biphenyl-2-sulfonamide] | 17 |  | 
Nc1cnc(-c2ccc(-c3ccccc3S(=O)(=O)NC3Cc4ccccc4C3)cc2F)cn1 [Example 21, 4′-(5-Aminopyrazin-2-yl)-N-(2,3-dihydro-1H-inden-2-yl)-3′-fluorobiphenyl-2-sulfonamide] | 35 |  | 
NC1CCN(S(=O)(=O)c2ccccc2-c2ccc(-c3cnc4c(c3)OCCN4)c(F)c2)CC1 [Example 389, 1-{[4′-(3,4-Dihydro-2H-pyrido[3,2-b][1,4]oxazin-7-yl)-3′-fluorobiphenyl-2-yl]sulfonyl}piperidin-4-amine] | 137 |  | 
Nc1cnc(-c2ccc(-c3ccccc3S(=O)(=O)N[C@H]3CCCCNC3=O)cc2F)cn1 (stereo in doubt) [Example 28, (S)-4′-(5-Aminopyrazin-2-yl)-3′-fluoro-N-[(3S)-2-oxoazepan-3-yl]biphenyl-2-sulfonamide] | 325 |  | 
CC(NS(=O)(=O)c1ccccc1-c1ccc(-c2cnc3[nH]ccc3n2)c(F)c1)C(F)(F)F (racemic) [Example 376, racemic 3′-Fluoro-4′-(5H-pyrrolo[2,3-b]pyrazin-2-yl)-N-(2,2,2-trifluoro-1-methylethyl)biphenyl-2-sulfonamide] | 10 |  | 
Nc1cnc(-c2ccc(-c3ccc(C(F)(F)F)cc3S(=O)(=O)NCCO)cc2F)cn1 [Example 210, 4′-(5-Aminopyrazin-2-yl)-3′-fluoro-N-(2-hydroxyethyl)-4-(trifluoromethyl)biphenyl-2-sulfonamide] | 20 |  | 
Nc1cnc(-c2ccc(-c3ccccc3S(=O)(=O)N3CC[C@@H](N)C3)cc2F)cn1 [Example 92, (R)-5-(2′-((3-Aminopyrrolidin-1-yl)sulfonyl)-3-fluoro-[1,1′-biphenyl]-4-yl)pyrazin-2-amine] | 222 |  | 
CSc1ccc(F)cc1-c1ccc(-c2cnc3[nH]ccc3n2)c(F)c1 [Example 383, 2-[3,5′-Difluoro-2′-(methylsulfanyl)biphenyl-4-yl]-5H-pyrrolo[2,3-b]pyrazine] | 1630 |  | 
Nc1ncc(-c2ccc(-c3ccccc3S(=O)(=O)N3CCCC(O)C3)cc2F)cc1F (racemic) [Example 668, (racemic)-1-((4′-(6-Amino-5-fluoropyridin-3-yl)-3′-fluoro-[1,1′-biphenyl]-2-yl)sulfonyl)piperidin-3-ol] |  | 190 | 
CC1CN(C(=O)c2ccccc2-c2ccc(-c3cnc(N)cn3)c(F)c2)CC(C)O1 (mixture of isomers) [Example 773, 5-{2′-[(2,6-Dimethylmorpholin-4-yl)carbonyl]-3-fluorobiphenyl-4-yl}pyrazin-2-amine (diastereoisomeric mixture)] |  | 639 | 
CC(O)CNS(=O)(=O)c1ccccc1-c1ccc(-c2cnc(N)c(C#N)n2)c(F)c1 (stereo in doubt) [Example 415, 4′-(5-Amino-6-cyanopyrazin-2-yl)-3′-fluoro-N-[(2R)-2-hydroxypropyl]biphenyl-2-sulfonamide] |  | 37 | 
C[C@H](NS(=O)(=O)c1ccccc1-c1ccc(-c2cnc(N)cn2)c(F)c1)c1ccccc1 [Example 24, (R)-4′-(5-Aminopyrazin-2-yl)-3′-fluoro-N-[(1R)-1-phenylethyl]biphenyl-2-sulfonamide] | 48 |  | 
C[Si](C)(C)CCOCS(=O)(=O)c1ccccc1-c1ccc(-c2cnc(N)nc2)c(F)c1 [Example 338, 5-[3-Fluoro-2′-({[2-(trimethylsilyl)ethoxy]methyl}sulfonyl)biphenyl-4-yl]pyrimidin-2-amine formate salt] |  |  | IC50: 1090 nM
C[C@@H]([C@@H](O)c1ccccc1)N(C)S(=O)(=O)c1ccccc1-c1ccc(-c2cnc(N)cn2)c(F)c1 [Example 118, 4′-(5-aminopyrazin-2-yl)-3′-fluoro-N-((1S,2S)-1-hydroxy-1-phenylpropan-2-yl)-N-methyl-[1,1′-biphenyl]-2-sulfonamide] | 6 |  | 

Now from value to molecule, other results behind:

IC50 [1] [nM] | IC50 [2] [nM] | Compound | further results
 | 526 | CC(=O)NC1CCN(S(=O)(=O)c2ccccc2-c2ccc(-c3cnc(N)c(F)c3)c(F)c2)CC1 [Example 670, N-(1-((4′-(6-Amino-5-fluoropyridin-3-yl)-3′-fluoro-[1,1′-biphenyl]-2-yl)sulfonyl)piperidin-4-yl)acetamide] | 
 | 1540 | Nc1nc(-c2ccc(-c3ccccc3S(=O)(=O)N3CCCC3)cc2F)cs1 [Example 579, 4-[3-Fluoro-2′-(pyrrolidin-1-ylsulfonyl)biphenyl-4-yl]-1,3-thiazol-2-amine] | 
 | 19 | Nc1cnc(-c2ccc(-c3ccccc3Oc3ncccn3)cc2F)cn1 [Example 526, 5-[3-Fluoro-2′-(pyrimidin-2-yloxy)biphenyl-4-yl]pyrazin-2-amine] | 
 | 36.1 | C[C@@H]([C@@H](O)c1ccccc1)N(C)S(=O)(=O)c1ccccc1-c1ccc(-c2ccc(N)nc2)c(F)c1 [Example 666, 4′-(6-Aminopyridin-3-yl)-3′-fluoro-N-((1S,2S)-1-hydroxy-1-phenylpropan-2-yl)-N-methyl-[1,1′-biphenyl]-2-sulfonamide] | 
2 |  | Nc1cnc(-c2ccc(-c3ccccc3S(=O)(=O)NC3(CO)CCCC3)cc2F)cn1 [Example 179, 4′-(5-Aminopyrazin-2-yl)-3′-fluoro-N-[1-(hydroxymethyl)cyclopentyl]biphenyl-2-sulfonamide] | 
44 |  | Nc1ncc(-c2ccc(-c3ccccc3S(=O)(=O)N3CCN(C4CC4)CC3)cc2F)cn1 [Example 281, 5-{2′-[(4-Cyclopropylpiperazin-1-yl)sulfonyl]-3-fluorobiphenyl-4-yl}pyrimidin-2-amine trifluoroacetic acid salt] | 
 | 59 | CC(C)(C)NS(=O)(=O)c1ccccc1-c1ccc(-c2cnc(N)c(F)c2)c(F)c1 [Example 430, 4′-(6-Amino-5-fluoropyridin-3-yl)-N-tert-butyl-3′-fluorobiphenyl-2-sulfonamide] | 
572 |  | CN[C@@H]1CCN(S(=O)(=O)c2ccccc2-c2ccc(-c3cnc(N)cn3)c(F)c2)C1 [Example 126, (R)-5-(3-Fluoro-2′-{[3-(methylamino)pyrrolidin-1-yl]sulfonyl}biphenyl-4-yl)pyrazin-2-amine] | 
69 |  | Nc1cnc(-c2ccc(-c3ccccc3S(=O)(=O)N3C[C@H](O)[C@@H](N4CCOCC4)C3)cc2F)cn1 (racemic) [Example 187, Racemic-1-{[4′-(5-Aminopyrazin-2-yl)-3′-fluorobiphenyl-2-yl]sulfonyl}-4-morpholin-4-ylpyrrolidin-3-ol trifluoroacetic acid salt] | 
82 |  | CCSc1ccccc1-c1ccc(-c2cnc3[nH]ccc3n2)c(F)c1 [Example 384, 2-[2′-(Ethylsulfanyl)-3-fluorobiphenyl-4-yl]-5H-pyrrolo[2,3-b]pyrazine] | 
23 |  | N#CCCNS(=O)(=O)c1ccccc1-c1ccc(-c2cnc(N)cn2)c(F)c1 [Example 169, 4′-(5-Aminopyrazin-2-yl)-N-(2-cyanoethyl)-3′-fluorobiphenyl-2-sulfonamide] | 
 | 53 | CC(C)(C)NS(=O)(=O)c1ccccc1-c1ccc(-c2cc(N)c3[nH]ccc3c2)c(F)c1 [Example 458, 4′-(7-Amino-1H-indol-5-yl)-N-tert-butyl-3′-fluorobiphenyl-2-sulfonamide] | 
302 |  | Nc1cnc(-c2ccc(-c3ccccc3S(=O)(=O)N3CCN(c4ncccn4)CC3)cc2F)cn1 [Example 177, 5-{3-Fluoro-2′-[(4-pyrimidin-2-ylpiperazin-1-yl)sulfonyl]biphenyl-4-yl}pyrazin-2-amine] | 
 | 330 | N#Cc1cc(Oc2ccccc2-c2ccc(-c3cnc(N)nc3)c(F)c2)ccn1 [Example 538, 4-{[4′-(2-Aminopyrimidin-5-yl)-3′-fluorobiphenyl-2-yl]oxy}pyridine-2-carbonitrile] | 
16 |  | Nc1cnc(-c2ccc(-c3ccccc3S(=O)(=O)N3c4ccccc4C[C@H]3CO)cc2F)cn1 [Example 135, (S)-(1-{[4′-(5-Aminopyrazin-2-yl)-3′-fluorobiphenyl-2-yl]sulfonyl}-2,3-dihydro-1H-indol-2-yl)-methanol] | 
 | 1370 | Cc1nc(-c2ccc(-c3ccccc3S(N)(=O)=O)cc2F)cnc1N [Example 446, 4′-(5-Amino-6-methylpyrazin-2-yl)-3′-fluorobiphenyl-2-sulfonamide] | 
76 |  | CC(CO)(CO)NS(=O)(=O)c1ccccc1-c1ccc(-c2cnc(N)nc2)c(F)c1 [Example 255, 4′-(2-Aminopyrimidin-5-yl)-3′-fluoro-N-[2-hydroxy-1-(hydroxymethyl)-1-methylethyl]biphenyl-2-sulfonamide] | 
14 |  | CNS(=O)(=O)c1cc(C(F)(F)F)ccc1-c1ccc(-c2cnc(N)cn2)c(F)c1 [Example 208, 4′-(5-Aminopyrazin-2-yl)-3′-fluoro-N-methyl-4-(trifluoromethyl)biphenyl-2-sulfonamide] | 
27 |  | Nc1cnc(-c2ccc(-c3ccccc3S(=O)(=O)N3CCCC(CO)C3)cc2F)cn1 (racemic) [Example 76, racemic (1-{[4′-(5-Aminopyrazin-2-yl)-3′-fluorobiphenyl-2-yl]sulfonyl}piperidin-3-yl)methanol] | 
